{
  "source": "paper PMC6152407",
  "about": "“Molecular Mechanisms Underlying Inhibitory Binding of Alkylimidazolium Ionic Liquids to Laccase” (Molecules : A Journal of Synthetic Chemistry and Natural …, 2017)",
  "key": {"[1]": {"target": "Myceliophthora thermophila (Mth) laccase", "assay": "Inhibition kinetics of laccase/ABTS oxidation (Lineweaver–Burk)", "type": "biochemical", "conditions": "laccase/ABTS oxidation at pH 3; read-out: competitive inhibition constant Kic", "experimental": "(§1) Reaction velocities (vo) were determined by mixing 50 μL of the properly diluted enzyme, 50 μL of substrate solution, and 2.4 mL of the media containing phosphate–citrate buffer (30 mM) and ILs in a 1 cm × 1 cm × 4 cm quartz colorimetric cell. […] All the reported data were averaged from at least three parallel measurements.\nA series of vo were measured under varied concentrations of substrate ([S]) and IL ([I]). The Lineweaver–Burk diagrams were then constructed by plotting 1/vo against 1/[S] to estimate Km and Vmax according to Equation (1). The features of inhibition by different ILs were also deduced from the diagrams. Ki was correspondingly calculated from Equations (2), (3) or (4).\n(2) (Competitive) 1/v0=KM/Vmax[S](1+[I]/Kic)+ 1/Vmax"}, "[2]": {"tested_on": "Myceliophthora thermophila (Mth) laccase", "type": "biochemical", "experimental": "as §1"}, "Tve laccase": {"tested_on": "Tve laccase", "conditions": "ABTS, pH 3, cited from earlier work"}, "[3]": {"assay": "Stability of ABTS cation radicals in ILs/buffer media", "conditions": "30 mM buffer without IL", "experimental": "ABTS cation radicals (ABTS^+) were obtained from the oxidation of ABTS (10 mmol/L) with the laccase (50 U/L) in […] phosphate–citrate buffer (pH 3) at 40 °C for 2 h. Then, the reaction mixtures were centrifuged in an ultrafiltration tube (molecular weight cutoff 10 kDa; Millipore, Bedford, MA, USA) at 9000× g for 10 min). Enzymes and polymerized substances were removed. The oxidized products were incubated with buffer (30 mM, pH 2~7) and ionic liquids (50 mM) at 25 °C for 6 min. The concentration of each product was monitored by the spectrophotometer."}, "[4]": {"set-up": "method as in PMID 26556325", "conditions": "80% aqueous solution; cited from earlier work"}},
  "data": [
    {"compound": "CCCCCCCC[n+]1ccn(C)c1", "note": "[[Omim]Cl]", "values": [
      {"measurement": "Ki", "setting": "[1]", "result": 2150, "unit": "µM"}
    ]},
    {"compound": "KCl", "values": [
      {"measurement": "activity loss compared with other salts", "setting": "[2]; pH 3", "result": "more activity loss than alkylimidazolium chlorides"}
    ]},
    {"compound": "[Cl-].[Na+]", "note": "[NaCl]", "values": [
      {"measurement": "uncompetitive constant Kiu", "setting": "Tve laccase", "result": 18.1, "unit": "mM"},
      {"measurement": "Ki", "setting": "Tve laccase; read-out: competitive constant Kic", "result": 350, "unit": "µM"}
    ]},
    {"compound": "ABTS^+", "values": [
      {"measurement": "half-life of ABTS^+", "setting": "[3]; pH 2", "result": 6.17, "unit": "h"},
      {"measurement": "half-life of ABTS^+", "setting": "[3]; pH 7", "result": 0.728, "unit": "h"}
    ]},
    {"compound": "CCCCn1cc[n+](C)c1.[Cl-]", "note": "[[Bmim]Cl]", "values": [
      {"measurement": "initial activity retained by re-dissolved complex", "setting": "Mth laccase", "result": 65, "unit": "%"},
      {"measurement": "retained laccase activity", "setting": "[2]; pH 3", "result": "65~75%"}
    ]},
    {"compound": "CCCCCCCCCCn1cc[n+](C)c1", "note": "[[Dmim]Cl]", "values": [
      {"measurement": "Ki", "setting": "[1]", "result": 180, "unit": "µM"},
      {"measurement": "laccase inactivation", "setting": "[2]; 50 mM IL, ABTS, pH 3 (Figure 2d)", "result": "almost completely inactivated"}
    ]},
    {"compound": "CC(C)=O", "note": "[acetone]", "values": [
      {"measurement": "time for 50% reduction of ABTS^+", "setting": "[4]", "result": "≤ 7", "unit": "min"}
    ]}
  ]
}
